Experimental data from patent publication US8343475B2, “Small cationic antimicrobial peptides” (priority 2006, dated 2013).
Values after ≈ are worked out from the molar mass of the structure shown. Residues, ends and D or L forms follow the SMILES beside them.

Key:
[1] = system: Staphylococcus aureus ATCC25923; assay type: cell-based; settings: ATCC25923
In short: (§1)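 First, peptides were serially diluted at ten times final strength in 0.01% acetic acid with 0.2% BSA. These were then added to Mueller Hinton medium and inoculated with overnight-grown organisms at 2-7×10^5 CFU/ml. After overnight incubation at 37° C, the MIC was scored as the concentration without growth.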

[2] = system: Enterococcus faecalis ATCC29212; assay type: cell-based; settings: ATCC29212
In short: as §1

[3] = system: CXCL1 (Gro-α) release by human PBMC; assay: Chemokine induction in PBMC (capture ELISA); assay type: cell-based; settings: background (196) subtracted
In short: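 Human PBMC from healthy donors' heparinised blood (Ficoll), 7.5×10^5 cells treated with 20 or 100 μg/ml peptide for 24 h at 37° C, 5% CO2. Cell-free supernatants assayed for CXCL1 by capture ELISA.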

[4] = system: ESBL Klebsiella pneumonia clinical strain 63575; assay type: cell-based
Experimental: (§2) Minimal inhibitory concentration (MIC) determination. The MIC of the peptides were measured using a modified broth microdilution method in Mueller Hinton (MH) medium (Wu M, Hancock R E W. 1999. Interaction of the cyclic antimicrobial cationic peptide bactenecin with the outer and cytoplasmic membrane. J Biol Chem 274, 29-35). Briefly, the peptides were dissolved and stored in glass vials. The assay was performed in sterile 96-well polypropylene microtitre plates were used. Serial dilutions of the peptides to be assayed were performed in 0.01% acetic acid (Fisher) containing 0.2% bovine serum albumin (Boehringer Mannheim GmbH) at 10× the desired final concentration. Ten microlitres of the 10× peptides were added to each well of a 96-well polypropylene plate containing 90 μl of MH media per well. Bacteria were added to the plate from an overnight culture at 2-7×10^5 colony forming units/ml and incubated over night at 37° C. The MIC was taken as the concentration at which no growth was observed.
(§3) The selected peptides were synthesized and assayed against several major antibiotic-resistant pathogens. Initially, the peptides were screened against the laboratory strain of P. aeruginosa PAO1 to compare the results with the training data. […] The antibacterial activity in the form of minimal inhibitory concentration (MIC) of the other studied peptides was assessed in greater depth (Table 9) against many highly antibiotic resistanct pathogens.

[5] = system: multidrug resistant Pseudomonas maltophilia ATCC13637; assay type: cell-based
Experimental: as §2, §3

[6] = system: ESBL E. coli clinical strain 64771; assay type: cell-based; settings: ESBL clinical strain 64771
Experimental: as §2, §3

[7] = system: multidrug resistant Brazilian clinical isolates of P. aeruginosa; assay type: cell-based, Pseudomonas aeruginosa
Experimental: as §2
(§4) All peptides derived from the 1st, 2nd, and 3rd quartiles were further evaluated for their antibacterial activities against several highly antibitoic resistant pathogens (Table 3). These included clinical isolates of MRSA, ESBL E. cloacae, and multidrug resistant Pseudomonas strains including Brazilian clinical isolates of P. aeruginosa that are resistant to meropenem, ceftazidime, piperacillin/tazobactam, ciprofloxacin, cefepime and polymyxin B, and the Liverpool Epidemic Strains. […] Such results characterize the developed peptides as excellent antibiotic candidates, providing new means for treating most dangerous and severe forms of human infections.

[8] = system: Liverpool Epidemic Strains; assay type: cell-based, Pseudomonas aeruginosa
Experimental: as §2, §4

[9] = system: MCP-3 release by human PBMC; assay: Chemokine induction in PBMC (capture ELISA); assay type: cell-based; settings: background (6) subtracted
In short: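 Human PBMC from healthy donors (Ficoll-isolated), 7.5×10^5 cells at 0.75–1×10^6 cells/ml, treated with peptides at 20 or 100 μg/ml for 24 h at 37° C, 5% CO2. MCP-3 in cell-free supernatants measured by capture ELISA.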

ESBL E. cloacae = assay type: cell-based, Enterobacter cloacae
Experimental: as §2, §4

[10] = system: MCP-1 release by human PBMC; assay: Chemokine induction in PBMC (capture ELISA); assay type: cell-based; settings: background (204) subtracted
In short: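 Heparinized blood from healthy volunteers; Ficoll-isolated human PBMC (7.5×10^5) treated with peptides at 20 or 100 μg/ml for 24 hours at 37° C, 5% CO2. Cell-free supernatants assayed for MCP-1 by capture ELISA.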

[11] = system: clinical isolates of MRSA; assay type: cell-based, Staphylococcus aureus
Experimental: as §2, §4

[12] = system: Pseudomonas aeruginosa PAO1 strain H103; assay type: cell-based; settings: PAO1
In short: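 Modified broth microdilution MIC in Mueller Hinton medium, peptides diluted in 0.01% acetic acid/0.2% BSA, polypropylene plates. Inoculum 2-7×10^5 CFU/ml, overnight at 37 °C; MIC is the lowest concentration with no visible growth.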

| Compound | MIC [1] | MIC [2] | MIC [4] | MIC [5] | MIC [6] | MIC [7] | MIC [8] | MIC (ESBL E. cloacae) | MIC [11] | MIC against P. aeruginosa PAO1 [12] | Chemokine induction Gro-α ([3]; 20 μg/ml peptide) | Chemokine induction Gro-α ([3]; 100 μg/ml peptide) | Chemokine induction MCP-3 ([9]; 20 μg/ml peptide) | Chemokine induction MCP-3 ([9]; 100 μg/ml peptide) | Chemokine induction MCP-1 ([10]; 20 μg/ml peptide) | Chemokine induction MCP-1 ([10]; 100 μg/ml peptide) |
| --- | --- | --- | --- | --- | --- | --- | --- | --- | --- | --- | --- | --- | --- | --- | --- | --- |
| CC(C)C[C@H](NC(=O)[C@H](Cc1c[nH]c2ccccc12)NC(=O)[C@H](Cc1c[nH]c2ccccc12)NC(=O)[C@H](CCCCN)NC(=O)[C@H](Cc1c[nH]c2ccccc12)NC(=O)[C@H](CCCNC(=N)N)NC(=O)[C@H](CCCNC(=N)N)NC(=O)[C@H](Cc1c[nH]c2ccccc12)NC(=O)[C@@H](N)CCCNC(=N)N)C(N)=O [HHC9, RWRRWKWWL] (H-RWRRWKWWL-NH2; N-terminus assumed) | 3 µM (≈ 4.42 µg/mL) | 23 µM (≈ 33.9 µg/mL) | 11 µM (≈ 16.2 µg/mL) | 0.7 µM (≈ 1.03 µg/mL) | 3 µM (≈ 4.42 µg/mL) | 12 µM (≈ 17.7 µg/mL) | 0.3 µM (≈ 0.442 µg/mL) | 6 µM (≈ 8.83 µg/mL) | 3 µM (≈ 4.42 µg/mL) |  | -25 pg/mL | 5 pg/mL | -1 pg/mL | 48 pg/mL | 9 pg/mL | 4493 pg/mL |
| N=C(N)NCCC[C@H](NC(=O)[C@H](CCCNC(=N)N)NC(=O)[C@H](CCCCN)NC(=O)[C@H](Cc1c[nH]c2ccccc12)NC(=O)[C@H](Cc1c[nH]c2ccccc12)NC(=O)[C@H](CCCCN)NC(=O)[C@H](CCCCN)NC(=O)[C@@H](N)Cc1c[nH]c2ccccc12)C(=O)N[C@@H](Cc1c[nH]c2ccccc12)C(N)=O [HHC48, WKKWWKRRW] (H-WKKWWKRRW-NH2; N-terminus assumed) | 1.4 µM (≈ 2.04 µg/mL) | 93 µM (≈ 136 µg/mL) | 46 µM (≈ 67.1 µg/mL) | 1.4 µM (≈ 2.04 µg/mL) | 3 µM (≈ 4.38 µg/mL) | 46 µM (≈ 67.1 µg/mL) | 6 µM (≈ 8.75 µg/mL) | 23 µM (≈ 33.6 µg/mL) | 39 µM (≈ 56.9 µg/mL) |  | -8 pg/mL | -10 pg/mL | -1 pg/mL | -1 pg/mL | 2 pg/mL | 12 pg/mL |
| CC[C@H](C)[C@H](NC(=O)[C@H](Cc1c[nH]c2ccccc12)NC(=O)[C@H](Cc1c[nH]c2ccccc12)NC(=O)[C@H](CCCCN)NC(=O)[C@H](CC(C)C)NC(=O)[C@H](CCCNC(=N)N)NC(=O)[C@H](CCCCN)NC(=O)[C@@H](N)CCCNC(=N)N)C(=O)N[C@@H](Cc1ccc(O)cc1)C(N)=O [HHC66, RKRLKWWIY] (H-RKRLKWWIY-NH2; N-terminus assumed) | 6 µM (≈ 8.09 µg/mL) | 50 µM (≈ 67.4 µg/mL) | 50 µM (≈ 67.4 µg/mL) | 3 µM (≈ 4.04 µg/mL) | 6 µM (≈ 8.09 µg/mL) | 50 µM (≈ 67.4 µg/mL) | 6 µM (≈ 8.09 µg/mL) | 13 µM (≈ 17.5 µg/mL) | 6 µM (≈ 8.09 µg/mL) | 4 to 12 µM | -12 pg/mL | -23 pg/mL | 0 pg/mL | 0 pg/mL | 351 pg/mL | 355 pg/mL |

Now from value to compound, other results behind:

| MIC [1] | MIC [2] | MIC [4] | MIC [5] | MIC [6] | MIC [7] | MIC [8] | MIC (ESBL E. cloacae) | MIC [11] | MIC against P. aeruginosa PAO1 [12] | Compound | Chemokine induction Gro-α ([3]; 20 μg/ml peptide) | Chemokine induction Gro-α ([3]; 100 μg/ml peptide) | Chemokine induction MCP-3 ([9]; 20 μg/ml peptide) | Chemokine induction MCP-3 ([9]; 100 μg/ml peptide) | Chemokine induction MCP-1 ([10]; 20 μg/ml peptide) | Chemokine induction MCP-1 ([10]; 100 μg/ml peptide) |
| --- | --- | --- | --- | --- | --- | --- | --- | --- | --- | --- | --- | --- | --- | --- | --- | --- |
| 3 µM (≈ 4.33 µg/mL) | 24 µM (≈ 34.7 µg/mL) | 24 µM (≈ 34.7 µg/mL) | 0.8 µM (≈ 1.16 µg/mL) | 6 µM (≈ 8.66 µg/mL) | 24 µM (≈ 34.7 µg/mL) | 1.5 µM (≈ 2.17 µg/mL) | 12 µM (≈ 17.3 µg/mL) | 3 µM (≈ 4.33 µg/mL) |  | CC[C@H](C)[C@H](NC(=O)[C@H](CCCCN)NC(=O)[C@H](Cc1c[nH]c2ccccc12)NC(=O)[C@H](Cc1c[nH]c2ccccc12)NC(=O)[C@H](CCCNC(=N)N)NC(=O)[C@@H](N)Cc1c[nH]c2ccccc12)C(=O)N[C@@H](Cc1c[nH]c2ccccc12)C(=O)N[C@@H](CCCCN)C(=O)N[C@@H](CCCNC(=N)N)C(N)=O [HHC20, WRWWKIWKR] (H-WRWWKIWKR-NH2; N-terminus assumed) | 169 pg/mL | 33 pg/mL | 8 pg/mL | 12 pg/mL | 290 pg/mL | 974 pg/mL |
| 68 µM (≈ 99.2 µg/mL) | 93 µM (≈ 136 µg/mL) | 46 µM (≈ 67.1 µg/mL) | 1.4 µM (≈ 2.04 µg/mL) | 3 µM (≈ 4.38 µg/mL) | 46 µM (≈ 67.1 µg/mL) | 6 µM (≈ 8.75 µg/mL) | 93 µM (≈ 136 µg/mL) | 6 µM (≈ 8.75 µg/mL) |  | N=C(N)NCCC[C@H](NC(=O)[C@H](Cc1c[nH]c2ccccc12)NC(=O)[C@H](CCCCN)NC(=O)[C@H](CCCCN)NC(=O)[C@H](Cc1c[nH]c2ccccc12)NC(=O)[C@H](Cc1c[nH]c2ccccc12)NC(=O)[C@H](CCCNC(=N)N)NC(=O)[C@H](CCCCN)NC(=O)[C@@H](N)Cc1c[nH]c2ccccc12)C(N)=O [HHC45, WKRWWKKWR] (H-WKRWWKKWR-NH2; N-terminus assumed) | -15 pg/mL | -32 pg/mL | -2 pg/mL | -2 pg/mL | -9 pg/mL | 161 pg/mL |
| 3 µM (≈ 4.21 µg/mL) | 24 µM (≈ 33.7 µg/mL) | 97 µM (≈ 136 µg/mL) | 1.5 µM (≈ 2.11 µg/mL) | 12 µM (≈ 16.9 µg/mL) | 24 µM (≈ 33.7 µg/mL) | 3 µM (≈ 4.21 µg/mL) | 6 µM (≈ 8.43 µg/mL) | 3 µM (≈ 4.21 µg/mL) | 4 to 12 µM | CC[C@H](C)[C@H](NC(=O)[C@H](CCCCN)NC(=O)[C@H](Cc1c[nH]c2ccccc12)NC(=O)[C@@H](N)CCCCN)C(=O)N[C@@H](Cc1ccccc1)C(=O)N[C@@H](CCCNC(=N)N)C(=O)N[C@@H](CCCNC(=N)N)C(=O)N[C@@H](Cc1c[nH]c2ccccc12)C(=O)N[C@@H](Cc1c[nH]c2ccccc12)C(N)=O [HHC71, KWKIFRRWW] (H-KWKIFRRWW-NH2; N-terminus assumed) | -17 pg/mL | 1 pg/mL | 0 pg/mL | 2 pg/mL | -6 pg/mL | 99 pg/mL |
